Key:
[1] = system: critically ill patients admitted to the intensive care unit (ICU); experiment: Occurrence of major bleeding (ISTH) in critically ill (ICU) patients; format: in vivo
Description: (§1) A multi-center, double-blind, randomized controlled trial enrolled 7,513 patients hospitalized for an acute medical illness with the following eligibility criteria: (1) hospitalization for acute medical illness, including heart failure, respiratory failure, infection, ischemic stroke, or rheumatic disorder; (2) age≥75 years, age 60 to 74 years with D-dimer≥2×the upper limit of normal (ULN), or age 40 to 59 years with D-dimer≥2×ULN and history of VTE or cancer; (3) anticipated severe immobilization for ≥24 hours followed by moderate or severe immobilization for 3 or more days; and (4) anticipated hospitalization for 3 or more days. Patients were randomly allocated in a 1:1 ratio to extended-duration betrixaban (35 to 42 days) or standard-duration enoxaparin (10±4 days).
(§2) The present study is a post hoc analysis of the effect of betrixaban in critically ill patients admitted to the intensive care unit (ICU) during the index hospitalization and received extended-duration betrixaban. The study population included in the present analysis was subjects admitted to the ICU during the index hospitalization event.
(§3) The primary efficacy endpoint was the occurrence of VTE, defined as a composite of asymptomatic proximal DVT, symptomatic DVT, non-fatal pulmonary embolism (PE), or VTE-related mortality. Safety endpoints were the occurrence of major bleeding and clinically relevant non-major bleeding, defined according to the International Society on Thrombosis and Haemostasis (ISTH) criteria. (Schulman S, Kearon C, Subcommittee on Control of Anticoagulation of the S, Standardization Committee of the International Society on T, Haemostasis. Definition of major bleeding in clinical investigations of antihemostatic medicinal products in non-surgical patients. J Thromb Haemost. 2005; 3:692-694; and Kaatz S, Ahmad D, Spyropoulos AC, Schulman S, Subcommittee on Control of A. Definition of clinically relevant non-major bleeding in studies of anticoagulants in atrial fibrillation and venous thromboembolic disease in non-surgical patients: communication from the SSC of the ISTH. J Thromb Haemost. 2015; 13:2119-2126.) All events were adjudicated by an independent clinical events committee blinded to thromboprophylaxis allocation.
(§4) Baseline characteristics of study participants were compared between treatment arms using the chi-squared test for categorical variables and one-way analysis of variance (ANOVA) for continuous variables, respectively. We analyzed efficacy using a modified intention-to-treat (mITT) population, which included subjects who received at least one dose of study medication and had data on one or more of the efficacy components. The bleeding risk of thromboprophylaxis was analyzed with the actual regimen received in the safety population, which included all randomized patients who received at least one dose of study medication. […] Absolute risk difference and relative risk of betrixaban vs. enoxaparin group were calculated and compared using the chi-squared test. The Breslow-Day test of homogeneity was performed to assess the effect modification by ICU admission on the thromboprophylaxis. All analyses were performed using two-sided tests at a significance level of 0.05 with SAS software version 9.4 (SAS Institute, Inc., North Carolina, United States).

[2] = system: non-critically ill patients; experiment: Occurrence of VTE in non-critically ill patients; format: in vivo, human
Description: as §1, with “Patients were randomly allocated in a 1:1 ratio to extended-duration betrixaban (35 to 42 days) or standard-duration enoxaparin (10±4 days).” left out
as §4, with “The Breslow-Day test of homogeneity was performed to assess the effect modification by ICU admission on the thromboprophylaxis. All analyses were performed using two-sided tests at a significance level of 0.05 with SAS software version 9.4 (SAS Institute, Inc., North Carolina, United States).” left out

[3] = Exposure of betrixaban on co-administration with a Pgp inhibitor; format: in vivo; settings: concomitant Pgp inhibitor
[4] = system: non-critically ill patients; experiment: Occurrence of major bleeding in non-critically ill patients; format: in vivo
Description: as §1, with “Patients were randomly allocated in a 1:1 ratio to extended-duration betrixaban (35 to 42 days) or standard-duration enoxaparin (10±4 days).” left out
as §4, with “The Breslow-Day test of homogeneity was performed to assess the effect modification by ICU admission on the thromboprophylaxis. All analyses were performed using two-sided tests at a significance level of 0.05 with SAS software version 9.4 (SAS Institute, Inc., North Carolina, United States).” left out

[5] = system: critically ill patients admitted to the intensive care unit (ICU); experiment: Occurrence of major or clinically relevant non-major bleeding (ISTH) in critically ill (ICU) patients; format: in vivo
Description: as §1, §2, §3, §4

[6] = system: critically ill patients admitted to the intensive care unit (ICU); experiment: Occurrence of VTE in critically ill (ICU) patients, post hoc analysis of randomized trial; format: in vivo, human
Description: as §1, §2, §3, §4

[7] = full-dose stratum (betrixaban 80 mg daily vs. enoxaparin 40 mg daily), end of study through 77 days
[8] = full-dose stratum (betrixaban 80 mg daily vs. enoxaparin 40 mg daily), end of study through 77 days, listed as betrixaban
[9] = full-dose stratum (betrixaban 80 mg daily vs. enoxaparin 40 mg daily), through 7 days after discontinuation
[10] = full-dose stratum (betrixaban 80 mg daily vs. enoxaparin 40 mg daily), through 7 days after discontinuation, listed as betrixaban
[11] = full-dose stratum, through 7 days after discontinuation
[12] = full-dose stratum, through 77 days
[13] = safety population, end of study through 77 days
[14] = safety population, end of study through 77 days, listed as betrixaban
[15] = safety population, through 7 days after discontinuation
[16] = safety population, through 7 days after discontinuation of study medication
[17] = safety population, through 7 days after discontinuation of study medication, listed as betrixaban
[18] = safety population, through 77 days
[19] = full-dose stratum (betrixaban 80 mg daily vs. enoxaparin 40 mg daily), through 42 days
[20] = full-dose stratum, through 42 days
[21] = mITT population, end of extended thromboprophylaxis through 42 days
[22] = mITT population, end of study through 77 days
[23] = mITT population, through 42 days
[24] = mITT population, through 77 days

COc1ccc(NC(=O)c2ccc(C(=N)N(C)C)cc2)c(C(=O)Nc2ccc(Cl)cn2)c1 [Betrixaban, N-(5-chloropyridin-2-yl)-2-(4-(N,N-dimethylcarbamimidoyl)benzamido)-5-methoxybenzamide]
major bleeding events / patients (n/N) [1, 7]: 1/271 | risk of major bleeding (rate) [1, 7]: (0.37%) | risk of major bleeding (rate) [1, 8]: 0.37% | major bleeding events / patients (n/N) [1, 9]: 0/271 | risk of major bleeding (rate) [1, 9]: (0.00%) | risk of major bleeding (rate) [1, 10]: 0.00% | major bleeding ARD betrixaban vs. enoxaparin [1, 11]: −3.26% | major bleeding NNT or NNH [1, 11]: 31 | major bleeding ARD betrixaban vs. enoxaparin [1, 12]: −3.25% | major bleeding NNT or NNH [1, 12]: 31 | major bleeding RR betrixaban vs. enoxaparin [1, 12]: 0.10 | major bleeding events / patients (n/N) [1, 13]: 5/351 | risk of major bleeding (rate) [1, 13]: (1.42%) | risk of major bleeding (rate) [1, 14]: 1.42% | major bleeding ARD betrixaban vs. enoxaparin [1, 15]: −1.99% | major bleeding RR betrixaban vs. enoxaparin [1, 15]: 0.36 | major bleeding events / patients (n/N) [1, 16]: 4/351 | risk of major bleeding (rate) [1, 16]: (1.14%) | risk of major bleeding (rate) [1, 17]: 1.14% | major bleeding ARD betrixaban vs. enoxaparin [1, 18]: −1.98% | major bleeding RR betrixaban vs. enoxaparin [1, 18]: 0.42 | reduction of VTE risk ([2]; end of extended thromboprophylaxis): 23% | reduction of VTE risk ([2]; end of study): 24% | effect of Pgp inhibitor on exposure of betrixaban [3]: increases the exposure | rates of major bleeding, betrixaban vs. enoxaparin [4]: no difference | major or clinically relevant non-major bleeding events / patients (n/N) [5, 7]: 11/271 | risk of major or clinically relevant non-major bleeding (rate) [5, 7]: (4.06%) | risk of major or clinically relevant non-major bleeding (rate) [5, 8]: 4.06% | major or clinically relevant non-major bleeding events / patients (n/N) [5, 9]: 9/271 | risk of major or clinically relevant non-major bleeding (rate) [5, 9]: (3.32%) | risk of major or clinically relevant non-major bleeding (rate) [5, 10]: 3.32% | major or clinically relevant non-major bleeding ARD betrixaban vs. enoxaparin [5, 11]: −0.30% | major or clinically relevant non-major bleeding RR betrixaban vs. enoxaparin [5, 11]: 0.92 | major or clinically relevant non-major bleeding ARD betrixaban vs. enoxaparin [5, 12]: 0.07% | major or clinically relevant non-major bleeding RR betrixaban vs. enoxaparin [5, 12]: 1.02 | major or clinically relevant non-major bleeding events / patients (n/N) [5, 13]: 15/351 | risk of major or clinically relevant non-major bleeding (rate) [5, 13]: (4.27%) | risk of major or clinically relevant non-major bleeding (rate) [5, 14]: 4.27% | major or clinically relevant non-major bleeding ARD betrixaban vs. enoxaparin [5, 15]: 0.29% | major or clinically relevant non-major bleeding RR betrixaban vs. enoxaparin [5, 15]: 1.09 | major or clinically relevant non-major bleeding events / patients (n/N) [5, 16]: 13/351 | risk of major or clinically relevant non-major bleeding (rate) [5, 16]: (3.70%) | risk of major or clinically relevant non-major bleeding (rate) [5, 17]: 3.70% | major or clinically relevant non-major bleeding ARD betrixaban vs. enoxaparin [5, 18]: 0.58% | major or clinically relevant non-major bleeding RR betrixaban vs. enoxaparin [5, 18]: 1.16 | reduction of the risk of VTE compared with enoxaparin ([6]; critically ill patients, end of extended thromboprophylaxis through 42 days): 46% | relative risk reduction of VTE compared with enoxaparin ([6]; critically ill patients, end of study through 77 days): 52% | risk reduction in the VTE components (asymptomatic proximal DVT, symptomatic DVT, non-fatal PE, VTE-related death) ([6]; critically ill patients, vs. enoxaparin): did not reach statistical difference | VTE events / patients (n/N) [6, 7]: 9/214 | risk of VTE (rate) [6, 7]: (4.21%) | risk of VTE (rate) [6, 8]: 4.21% | VTE events / patients (n/N) [6, 19]: 9/271 | risk of VTE (rate) [6, 19]: (3.32%) | risk of VTE (rate) ([6]; full-dose stratum (betrixaban 80 mg daily vs. enoxaparin 40 mg daily), through 42 days, listed as betrixaban): 3.32% | VTE ARD (absolute risk difference) betrixaban vs. enoxaparin [6, 20]: −5.01% | VTE NNT or NNH [6, 20]: 20 | VTE RR (relative risk) betrixaban vs. enoxaparin [6, 20]: 0.40 | VTE ARD (absolute risk difference) betrixaban vs. enoxaparin [6, 12]: −7.20% | VTE NNT or NNH [6, 12]: 14 | VTE RR (relative risk) betrixaban vs. enoxaparin [6, 12]: 0.37 | VTE events / patients (n/N) [6, 21]: 15/351 | risk of VTE (rate) [6, 21]: (4.27%) | risk of VTE (rate) ([6]; mITT population, end of extended thromboprophylaxis through 42 days, listed as betrixaban): 4.27% | VTE events / patients (n/N) [6, 22]: 15/286 | risk of VTE (rate) [6, 22]: (5.24%) | risk of VTE (rate) ([6]; mITT population, end of study through 77 days, listed as betrixaban): 5.24% | VTE ARD (absolute risk difference) betrixaban vs. enoxaparin [6, 23]: −3.68% | VTE NNT or NNH [6, 23]: 28 | VTE RR (relative risk) betrixaban vs. enoxaparin [6, 23]: 0.54 | VTE ARD (absolute risk difference) betrixaban vs. enoxaparin [6, 24]: −5.63% | VTE NNT or NNH [6, 24]: 18 | VTE RR (relative risk) betrixaban vs. enoxaparin [6, 24]: 0.48

Enoxaparin [reference compound]
VTE events / patients (n/N) [6, 7]: 26/228 | risk of VTE (rate) [6, 7]: (11.40%) | risk of VTE (rate) ([6]; full-dose stratum (betrixaban 80 mg daily vs. enoxaparin 40 mg daily), end of study through 77 days, listed as enoxaparin): 11.40% | VTE events / patients (n/N) [6, 19]: 23/276 | risk of VTE (rate) [6, 19]: (8.33%) | risk of VTE (rate) ([6]; full-dose stratum (betrixaban 80 mg daily vs. enoxaparin 40 mg daily), through 42 days, listed as enoxaparin): 8.33% | VTE events / patients (n/N) [6, 21]: 28/352 | risk of VTE (rate) [6, 21]: (7.95%) | risk of VTE (rate) ([6]; mITT population, end of extended thromboprophylaxis through 42 days, listed as enoxaparin): 7.95% | VTE events / patients (n/N) [6, 22]: 31/285 | risk of VTE (rate) [6, 22]: (10.88%) | risk of VTE (rate) ([6]; mITT population, end of study through 77 days, listed as enoxaparin): 10.88%

— patent US20190388406A1, “METHODS OF PREVENTION AND TREATMENT OF THROMBOSIS” (Portola Pharmaceuticals, Inc., priority 2018, published 2019)
